Source: the supplement of paper PMC10627819

Legend:
S. aureus DSM 20231 [1] = experiment: Bliss interaction score (quartile over a dose matrix) (fitness difference); higher = more antagonism (negative = synergy)
Procedure, shortened: (§1)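 Fitness is OD595 at stationary-phase entry relative to the plate's robust no-drug mean, capped at 1. Single-drug fitness was inferred from combinations. The Bliss score is observed minus product-expected fitness, summarised by quartiles over technical, biological and donor/recipient replicates.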

S. pneumoniae D39V = experiment: as above
Procedure, shortened: as §1

B. subtilis 168 [2] = experiment: as above
Procedure, shortened: as §1

S. aureus Newman [3] = experiment: as above
Procedure, shortened: as §1

S. aureus DSM 20231 [4] = experiment: fitness (endpoint OD595 vs no drug) (fraction); higher = more growth
Procedure, shortened: (§2)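 In 384-well plates at 37 °C, cultures began at OD595 0.01 in 30 µl, with 55 µl used for S. pneumoniae. OD595 readings every 30 min for 14 h were corrected by the first reading. Fitness divides the stationary-phase transition optical density by the robust mean of no-drug control wells. The result is capped at 1.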

B. subtilis 168 [5] = experiment: as above
Procedure, shortened: as §2

S. aureus Newman [6] = experiment: as above
Procedure, shortened: as §2
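Wherever Bliss interaction score (quartile over a dose matrix) is given: first quartile when negative (synergy) and third quartile when positive (antagonism).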

CC[C@H]1OC(=O)[C@H](C)[C@@H](O[C@H]2C[C@@](C)(OC)[C@@H](O)[C@H](C)O2)[C@H](C)[C@@H](O[C@@H]2O[C@H](C)C[C@H](N(C)C)[C@H]2O)[C@](C)(O)C[C@@H](C)CN(C)[C@H](C)[C@@H](O)[C@]1(C)O [Azithromycin] + COc1c(N2C[C@@H]3CCCN[C@@H]3C2)c(F)cc2c(=O)c(C(=O)O)cn(C3CC3)c12 [Moxifloxacin]
Conditions | Bliss interaction score
B. subtilis 168 [2] | 0.0244
S. aureus DSM 20231 [1] | 0.0773
S. aureus Newman [3] | 0.118
S. pneumoniae D39V | 0.0652

fitness
Conditions | first compound 0.125 µg/mL | first compound 0.25 µg/mL | first compound 0.5 µg/mL | first compound 1 µg/mL | first compound 2 µg/mL
B. subtilis 168 [5], partner 0.0312 µg/mL | – | – | 0.0678 | 0.0582 | 0.0414
B. subtilis 168 [5], partner 0.0625 µg/mL | – | 0.0511 | 0.0366 | 0.0237 | 0.0289
B. subtilis 168 [5], partner 0.125 µg/mL | – | 0.0301 | 0.0372 | 0.0336 | 0.02
B. subtilis 168 [5], partner 2 µg/mL | – | 0.027 | 0.0186 | 0.0208 | –
B. subtilis 168 [5], partner 4 µg/mL | – | 0.0147 | 0.0272 | 0.0194 | –
B. subtilis 168 [5], partner 8 µg/mL | – | 0.0347 | 0.042 | 0.0214 | –
S. aureus DSM 20231 [4], partner 0.0075 µg/mL | 0.727 | 0.747 | – | – | –
S. aureus DSM 20231 [4], partner 0.015 µg/mL | 0.687 | 0.772 | 0.592 | – | –
S. aureus DSM 20231 [4], partner 0.03 µg/mL | 0.656 | 0.737 | 0.556 | – | –
S. aureus Newman [6], partner 0.0075 µg/mL | 0.717 | 0.723 | – | – | –
S. aureus Newman [6], partner 0.015 µg/mL | 0.666 | – | 0.415 | – | –
S. aureus Newman [6], partner 0.03 µg/mL | – | – | 0.307 | – | –

fitness, S. aureus DSM 20231 [4], one replicate
Conditions | first compound 0.125 µg/mL | first compound 0.25 µg/mL | first compound 0.5 µg/mL
partner 0.06 µg/mL | 0.633 | 0.623 | 0.587
partner 0.12 µg/mL | 0.528 | 0.559 | 0.452
